Reference: paper PMC8899516, “Structure-Activity Relationship Studies of 4-((4-(2-fluorophenyl)piperazin-1-yl)methyl)-6-imino-N-(naphthalen-2-yl)-1,3,5-triazin-2-amine (FPMINT) Analogues as Inhibitors of Human Equilibrative Nucleoside Transporters” (Frontiers in Pharmacology, 2022)

Columns and labels:
[1] = biological target: T1, ENT2 (Homo sapiens, UniProt Q14542); assay: [3H]uridine uptake in PK15NTD/ENT2 cells; assay type: cell-based; conditions: [3H]uridine 1 μM, 1 min, PK15NTD/ENT2 cells; read-out: IC50 against ENT2
T1 construct: expressed in transfected cells
T1 sequence (Q14542 1-456): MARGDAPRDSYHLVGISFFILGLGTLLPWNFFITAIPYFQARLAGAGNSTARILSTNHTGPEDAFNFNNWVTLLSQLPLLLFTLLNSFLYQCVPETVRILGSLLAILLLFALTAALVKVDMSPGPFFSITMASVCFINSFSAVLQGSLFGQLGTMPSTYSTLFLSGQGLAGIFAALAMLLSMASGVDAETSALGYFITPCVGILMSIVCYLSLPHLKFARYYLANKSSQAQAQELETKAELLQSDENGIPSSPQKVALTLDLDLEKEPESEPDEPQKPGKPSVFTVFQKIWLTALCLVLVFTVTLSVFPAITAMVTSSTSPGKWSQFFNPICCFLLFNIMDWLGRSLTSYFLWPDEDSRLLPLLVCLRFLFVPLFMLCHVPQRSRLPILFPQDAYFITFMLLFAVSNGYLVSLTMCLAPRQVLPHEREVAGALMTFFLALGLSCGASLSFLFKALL
Method: Nucleoside transporter-deficient porcine kidney fibroblast cells (PK15NTD) stably transfected with cloned human ENT1 or ENT2 ([Ward et al., 2000]) were used as the in vitro models. The cells were cultured in Dulbecco’s Modified Eagle’s Medium (DMEM) supplemented with 10% (v/v) foetal bovine serum, 0.5 mg/ml geneticin, 100 units/ml penicillin, 100 μg/ml streptomycin and 0.25 μg/ml of amphotericin B at 37°C in 5% CO2/95% air.
The cells were incubated with different concentrations of FPMINT analogues (from 10 nM to 100 μM) containing [^3H]uridine (2 μCi/ml, 1 μM) for 1 min. Passive uridine uptake was determined by incubating the cells in HEPES-buffered Ringer’s solution containing [^3H]uridine in the presence of 0.5 mM NBMPR. The cells were rapidly washed five times with ice-cold phosphate-buffered saline (PBS). After air-drying, the cells were solubilised by overnight incubation in 500 μl of 5% Triton-X100. Next, 300 μl of the cell lysates were mixed with 2 ml of scintillation liquid. The radioactivity of each sample was quantified by a scintillation counter. The protein content in each well was determined spectrophotometrically using a commercial bicinchoninic acid assay (Pierce Biochemicals, Rockford, IL). Uptake values were expressed as picomoles of [^3H]uridine per milligram of cellular protein per minute.
All data were analysed by GraphPad Prism software (San Diego, CA, United States). Data are expressed as mean ± standard error (SE) of three experiments performed in triplicate. The IC50 values were determined from the dose-response curves fitted with a logistic function. For the kinetic study of [^3H]uridine uptake, apparent K m and V max values were determined from the Michaelis-Menten equation, and K i was determined from the X-intercept of linear regression. Analysis of variance and Student’s t-test were performed for multiple and paired variables, respectively. p values of <0.05 were considered to be statistically significant.

[2] = system: ENT1; assay: Cell surface biotinylation and internalization assay; assay type: cell-based, human; conditions: 50 µM, 24 h or 48 h, PK15NTD cells
Method: (§1) To label all surface proteins, after washing with ice-cold PBS, PK15NTD/ENT1 and PK15NTD/ENT2 cells were incubated with sulfo-NHS-SS-biotin (300 μg/ml) for 30 min at 4°C to biotinylate cell surface proteins. The unbound biotin was washed away by PBS containing 0.1% BSA at 4°C. The biotinylated cells were then incubated with the original growth media with or without 50 µM compound 3c and returned to the 5% CO2 incubator at 37 °C for 24 h or 48 h for transporter internalization. Transporter trafficking was stopped by rapidly cooling the cells at 4°C. […]
(§2) FIGURE 5 Effects of compound 3c on cytotoxicity and protein expressions of ENT1 and ENT2. Cytotoxicity of compound 3c was measured after 24 h or 48 h treatment of PK15NTD/ENT1 and PK15NTD/ENT2 cells with various concentrations of compound 3c (0.5, 5 and 50 μM) or a vehicle (0.5% DMSO, as a control) (A) The cell viability and (B) cell membrane integrity were determined by the MTT assay and LDH release, respectively (C) PK15NTD/ENT1 and (D) PK15NTD/ENT2 cells were incubated with 50 μM of compound 3c or a vehicle (0.5% DMSO, as a control) for 24 or 48 h. […] After cleavage of extracellular biotin, internalized biotinylated proteins were precipitated with immobilized streptavidin beads and detected with an anti-ENT1 and anti-ENT2 antibodies by western blotting. […]

[3] = system: ENT2; assay: as above; assay type: cell-based, human; conditions: 50 µM, 24 h or 48 h, PK15NTD cells
Method: as §1, §2

Cc1cccc(Nc2nc(N)nc(CN3CCN(c4ccc(F)cc4)CC3)n2)c1 [Compound 3c]
IC50 [1]: 570 nM
location of biotinylated ENT1 (internalization) [2]: exclusively found at the plasma membrane
location of biotinylated ENT2 (internalization) [3]: exclusively found at the plasma membrane
